Where two headings read alike, the source gives them in different places.
Legend:
[1] = target: T1, Recombinant human c-KIT kinase (Homo sapiens, UniProt P10721); assay: c-KIT Kinase Chemiluminescence Assay (ADP-Glo); assay type: biochemical; conditions: recombinant human c-KIT 30-40 nM, ATP 50 μM, polyEY substrate, ADP-Glo luminescence
T1 construct: purchased Promega V4498
Excerpt: Staurosporine (AM-2282) and Imatinib (STI571) were purchased from Selleck Chemicals LLC (Houston, TX). The c-KIT reference compound THB001 (EP-053504) was synthesized by Enanta Pharmaceuticals, Inc. (Watertown, MA). The c-KIT Kinase Enzyme System (V4498) and ADP-Glo™ Kinase Assay kit (V6930) were purchased from Promega (Madison, WI). DMSO (D2650) was purchased from Sigma-Aldrich (Burlington, MA). ECHO-650 acoustic liquid handling system (67492212) and 384-well LDV ECHO source plates (LP-0200) were purchased from Labcyte, Inc (San Jose, CA). Envision Multimode Plate Reader (2104/464466) and ProxiPlate-384 Plus White 384-shallow well microplates (6008280) were purchased from PerkinElmer (Waltham, MA).
1. c-KIT Kinase Chemiluminescence Assay:
IC50 determination. Test compounds were dispersed into a 384-well low volume while ProxiPlate microplate from a DMSO solution using an ECHO 650 acoustic dispenser to generate a 11-point, 3.162-fold dilution, concentration curve starting at 10 μM in duplicate. Kinase Reaction: The kinase assay was based on the recommended protocol by c-KIT Kinase Enzyme System from Promega. Recombinant human c-KIT kinase in 3 μL of assay buffer (40 mM Tris pH 7.5, 20 mM MgCl2, 0.1 mg/mL BSA and 50 μM DTT) was added to the test or high control wells and 3 μL of assay buffer was added to the low control wells. The microplate was centrifuged at 800 rotations per minute (rpm) for 60 s and incubated at room temperature (RT) for 30 min. Next, 2 μL of buffered ATP and polyEY substrate solution was added to all wells. The microplate was centrifuged at 800 rpm for 60 s and incubated at RT for 2 h. The final assay contained c-KIT (30-40 nM), ATP (50 μM), polyEY substrate (0.2 μg/μL), test compounds (0-10 μM) and DMSO (1.7%) in 5 μL assay buffer. ADP detection with ADP-Glo™ Kinase Assay: After the kinase reaction incubation, 5 μL of ADP-Glo™ reagent was added to all wells. The microplate was centrifuged at 800 rpm for 60 s and incubated at RT for 40 min. Ten microliter (10 μL) of Kinase Detection Reagent (Luciferin-Luciferase system) was then added to all wells. The microplate was centrifuged at 800 rpm for 60 s and incubated at RT for 60 min. Kinase activity was measured as increase in luminescence at RT in an Envision plate reader equipped with 560 nm filters and operating in endpoint mode.
Data Analysis: Endpoint chemiluminescence from high and low control wells were used to calculate normalized c-KIT activity at various concentrations of test compounds. The normalized activities were fitted to inhibitor-versus-normalized response fit in GraphPad Prism 7 to determine half-maximal inhibitory concentration (IC50) and hill coefficient values (H).
c-KIT activity (%)=100/(1+I^H/IC50^H). Where I is the inhibitor concentration and H is the Hill coefficient. IC50 ranges are reported as follows: A<100 nM; B 0.1-1 μM; C>1 μM.

[2] = tested on: M-07e cells which endogenously express human c-KIT; assay: M-07e Cellular Assay (SCF-mediated cell proliferation, CellTiter Glo); assay type: cell-based; conditions: read-out: M-07e EC50
Procedure: 2. M-07e Cellular Assay M-07e cells (Creative Bioarray, CSC-CO249) which endogenously express human c-KIT were used to evaluate the effect of compounds on stem cell factor (SCF)-mediated cell proliferation. M-07e cells were cultured in growth media (RPMI+10% FBS+1% penicillin/streptomycin+10 ng/mL GM-CSF) at 5E5-1.5E6 cells/mL, replenishing media every 3-4 days. 1.5E4 cells were seeded per well in 384 well tissue culture treated plates in 20 μL assay media (RPMI+10% FBS+1% penicillin/streptomycin) without growth factor stimulation and incubated at 37° C. in a CO2 humidity-controlled incubator. Twenty-four hours later, three-fold serially diluted test compounds in media containing SCF (at the previously determined EC90) were added to the plated M-07e cells and incubated for an additional 72 hours. Cell viability was determined by adding 25 μL CellTiter Glo (Promega) to the cells and the luminescence was measured using a Perkin Elmer Envision plate reader. The EC50 was determined using GraphPad Prism. […] EC50 ranges are reported as follows: […]

[3] = SCF (EC90)-stimulated M-07e cell proliferation, 72 hours, CellTiter Glo

T1 sequence (P10721 26-976): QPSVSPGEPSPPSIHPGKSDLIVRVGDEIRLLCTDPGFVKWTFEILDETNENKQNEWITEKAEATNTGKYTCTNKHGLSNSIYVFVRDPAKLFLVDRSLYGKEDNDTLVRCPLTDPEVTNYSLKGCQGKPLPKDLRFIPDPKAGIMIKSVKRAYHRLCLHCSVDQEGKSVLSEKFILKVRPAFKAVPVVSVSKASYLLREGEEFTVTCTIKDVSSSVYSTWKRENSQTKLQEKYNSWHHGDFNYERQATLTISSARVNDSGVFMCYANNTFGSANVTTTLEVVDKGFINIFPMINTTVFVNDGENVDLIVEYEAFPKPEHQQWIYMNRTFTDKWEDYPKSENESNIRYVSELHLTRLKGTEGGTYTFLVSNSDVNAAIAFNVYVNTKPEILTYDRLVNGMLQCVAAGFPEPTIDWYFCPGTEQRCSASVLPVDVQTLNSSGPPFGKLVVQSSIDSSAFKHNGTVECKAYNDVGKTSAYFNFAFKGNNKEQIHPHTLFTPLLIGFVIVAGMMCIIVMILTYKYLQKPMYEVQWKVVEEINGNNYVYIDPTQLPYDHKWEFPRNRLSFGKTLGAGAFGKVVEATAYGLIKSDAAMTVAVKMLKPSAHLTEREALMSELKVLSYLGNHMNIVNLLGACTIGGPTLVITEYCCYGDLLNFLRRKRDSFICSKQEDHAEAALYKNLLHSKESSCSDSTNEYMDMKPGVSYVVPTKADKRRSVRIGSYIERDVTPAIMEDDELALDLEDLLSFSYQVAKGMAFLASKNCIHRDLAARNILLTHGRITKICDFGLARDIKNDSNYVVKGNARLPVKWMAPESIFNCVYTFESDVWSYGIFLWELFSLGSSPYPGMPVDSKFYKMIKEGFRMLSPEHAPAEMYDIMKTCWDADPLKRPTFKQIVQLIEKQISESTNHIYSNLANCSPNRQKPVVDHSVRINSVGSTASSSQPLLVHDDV

Row | IC50 [1] | Compound | EC50 [2, 3] | EC50 ([2]; M-07e, 72 h)
1 | < 100 nM | Cc1ccc(-c2nnc(C3CC(F)(F)C3)s2)cc1NC(=O)c1cnc2ccccn12 [Example 1-1] | < 100 nM | 
2 | < 100 nM | Cc1ccc(-c2nnc([C@H]3C[C@@H]3F)s2)cc1NC(=O)c1cnc2ccccn12 [Example 1] | < 100 nM | 
3 | 100 to 1000 nM | Cc1ccc(-c2nnn(C3CC3)n2)cc1NC(=O)c1cnc2ccccn12 [Example 2] | < 100 nM | 
4 | < 100 nM | Cc1ccc(-c2nnn(C3CC(F)(F)C3)n2)cc1NC(=O)c1cnc2ccccn12 [Example 3] | < 100 nM | 
5 | < 100 nM | Cc1ccc(-c2nc(C3CC(F)(F)C3)cs2)cc1NC(=O)c1cnc2ccccn12 [Example 4] | 100 to 1000 nM | 
6 | > 1000 nM | Cc1ccc(-c2nnc(C3CC3)n2C2CC2)cc1NC(=O)c1cnc2ccccn12 [Example 5] | > 1000 nM | 
7 | > 1000 nM | Cc1ccc(-c2nc(C3CC3)nn2C)cc1NC(=O)c1cnc2ccccn12 [Example 6-1] | 100 to 1000 nM | 
8 | < 100 nM | Cc1ccc(-c2nc3ccc(F)cn3n2)cc1NC(=O)c1cnc2ccccn12 [Example 6-2] | < 100 nM | 
9 | < 100 nM | Cc1ccc(-c2nc3ccc(Cl)cn3n2)cc1NC(=O)c1cnc2ccccn12 [Example 6-3] | < 100 nM | 
10 | 100 to 1000 nM | Cc1ccc(-c2cn3c(n2)CCCC3)cc1NC(=O)c1cnc2ccccn12 [Example 6-4] | < 100 nM | 
11 | 100 to 1000 nM | Cc1ccc(-c2cn3c(n2)CCC3)cc1NC(=O)c1cnc2ccccn12 [Example 6-5] | 100 to 1000 nM | 
12 | < 100 nM | Cc1ccc(-c2nc3cc(F)ccn3n2)cc1NC(=O)c1cnc2ccccn12 [Example 6-6] | < 100 nM | 
13 | > 1000 nM | Cc1ccc(-c2nc3ccccn3n2)cc1NC(=O)c1cnc2ccccn12 [Example 6-7] |  | 
14 | 100 to 1000 nM | Cc1ccc(-c2nc3n(n2)[C@@H](c2ccccc2)C[C@H]3F)cc1NC(=O)c1cnc2ccccn12 [Example 6-8] | 100 to 1000 nM | 
15 | < 100 nM | Cc1ccc(-c2nc3ccc(C(F)(F)F)cn3n2)cc1NC(=O)c1cnc2ccccn12 [Example 6-9] | < 100 nM | 
16 | 100 to 1000 nM | Cc1ccc(-c2nc3cccc(C(F)(F)F)n3n2)cc1NC(=O)c1cnc2ccccn12 [Example 6-10] | 100 to 1000 nM | 
17 | > 1000 nM | Cc1ccc(-c2nnc3n2CCCC3)cc1NC(=O)c1cnc2ccccn12 [Example 6-11] |  | 
18 | 100 to 1000 nM | Cc1ccc(-c2nc3n(n2)CCCC3)cc1NC(=O)c1cnc2ccccn12 [Example 6-12] | 100 to 1000 nM | 
19 | < 100 nM | Cc1ccc(-c2nc3n(n2)CCN(C(=O)OC(C)(C)C)C3)cc1NC(=O)c1cnc2ccccn12 [Example 6-13] | 100 to 1000 nM | 
20 | < 100 nM | Cc1ccc(-c2nc3cc(C(F)(F)F)ccn3n2)cc1NC(=O)c1cnc2ccccn12 [Example 6-14] | < 100 nM | 
21 | < 100 nM | Cc1ccc(-c2nc3cc(Cl)ccn3n2)cc1NC(=O)c1cnc2ccccn12 [Example 6-15] | 100 to 1000 nM | 
22 | 100 to 1000 nM | Cc1ccc(-c2nc3n(n2)CCNC3)cc1NC(=O)c1cnc2ccccn12 [Example 6-16] | > 1000 nM | 
23 | 100 to 1000 nM | Cc1ccc(-c2nc3n(n2)CCN(C(=O)[C@H]2C[C@@H]2F)C3)cc1NC(=O)c1cnc2ccccn12 [Example 6-18] | 100 to 1000 nM | 

Row | IC50 [1] | Compound | EC50 [2, 3] | EC50 ([2]; M-07e, 72 h)
24 | 100 to 1000 nM | Cc1ccc(-c2nc3n(n2)CCN(C(=O)C2CC(F)(F)C2)C3)cc1NC(=O)c1cnc2ccccn12 [Example 6-19] |  | 
25 | > 1000 nM | Cc1ccc(-c2nc3n(n2)CCN(C(=O)[C@H]2[C@@H]4CC(F)(F)C[C@@H]42)C3)cc1NC(=O)c1cnc2ccccn12 [Example 6-20] |  | 
26 | < 100 nM | Cc1ccc(-c2nc3n(n2)C[C@H](C(F)(F)F)CC3)cc1NC(=O)c1cnc2ccccn12 [Example 6-21] | < 100 nM | 
27 | < 100 nM | Cc1ccc(-c2nc3cc(C4CC4)ccn3n2)cc1NC(=O)c1cnc2ccccn12 [Example 6-23] | < 100 nM | 
28 | < 100 nM | Cc1ccc(-c2nc3ccc(C4CC4)cn3n2)cc1NC(=O)c1cnc2ccccn12 [Example 6-24] | < 100 nM | 
29 | 100 to 1000 nM | Cc1ccc(-c2nc(C3CC3)n(C)n2)cc1NC(=O)c1cnc2ccccn12 [Example 6] | 100 to 1000 nM | 
30 | < 100 nM | Cc1ccc(-c2cn(C3CC(F)(F)C3)nn2)cc1NC(=O)c1cnc2ccccn12 [Example 7] | < 100 nM | 
31 | < 100 nM | Cc1ccc(-n2nnc(C3CC(F)(F)C3)n2)cc1NC(=O)c1cnc2ccccn12 [Example 8] | < 100 nM | 
32 | 100 to 1000 nM | Cc1ccc(-n2nnc(-c3ccc(F)cc3)n2)cc1NC(=O)c1cnc2ccccn12 [Example 9-1] | 100 to 1000 nM | 
33 | 100 to 1000 nM | Cc1ccc(-n2nnc(-c3cccc(F)c3)n2)cc1NC(=O)c1cnc2ccccn12 [Example 9-2] | 100 to 1000 nM | 
34 | < 100 nM | Cc1ccc(-c2coc(C3CC(F)(F)C3)n2)cc1NC(=O)c1cnc2ccccn12 [Example 10] | < 100 nM | 
35 | 100 to 1000 nM | Cc1ccc(-c2coc([C@H]3C[C@@H]3F)n2)cc1NC(=O)c1cnc2ccccn12 [Example 11-1] | < 100 nM | 
36 | < 100 nM | Cc1ccc(-c2nc3cc(F)ccc3o2)cc1NC(=O)c1cnc2ccccn12 [Example 11-2] | < 100 nM | 
37 | 100 to 1000 nM | Cc1ccc(-c2nc3ccccc3o2)cc1NC(=O)c1cnc2ccccn12 [Example 11-3] | < 100 nM | 
38 | < 100 nM | Cc1ccc(-c2nc3ccccc3s2)cc1NC(=O)c1cnc2ccccn12 [Example 11-4] | 100 to 1000 nM | 
39 | 100 to 1000 nM | Cc1ccc(-c2nc3ccc(F)cc3o2)cc1NC(=O)c1cnc2ccccn12 [Example 11-5] | 100 to 1000 nM | 
40 | < 100 nM | Cc1ccc(-c2nc3ccccc3[nH]2)cc1NC(=O)c1cnc2ccccn12 [Example 11-6] | < 100 nM | 
41 | > 1000 nM | Cc1ccc(-c2nc3ccccc3n2C)cc1NC(=O)c1cnc2ccccn12 [Example 11-7] | 100 to 1000 nM | 
42 | < 100 nM | Cc1ccc(-c2nc3ccc(F)cc3[nH]2)cc1NC(=O)c1cnc2ccccn12 [Example 11-8] | < 100 nM | 
43 | < 100 nM | Cc1ccc(-c2nc3ccc(C(F)(F)F)cc3[nH]2)cc1NC(=O)c1cnc2ccccn12 [Example 11-9] | < 100 nM | 
44 | > 1000 nM | Cc1ccc(-c2ncc(C3CC(F)(F)C3)n2COCC[Si](C)(C)C)cc1NC(=O)c1cnc2ccccn12 [Example 11-11] |  | 
45 | 100 to 1000 nM | Cc1ccc(-c2c[nH]c(C3CC(F)(F)C3)n2)cc1NC(=O)c1cnc2ccccn12 [Example 11] | 100 to 1000 nM | 

Row | Compound | IC50 [1] | EC50 [2, 3] | EC50 ([2]; M-07e, 72 h)
46 | Cc1ccc(-c2cnn(C3CC(F)(F)C3)n2)cc1NC(=O)c1cnc2ccccn12 [Example 11-10] | < 100 nM | < 100 nM | 
47 | Cc1ccc(-n2cc(C3CC(F)(F)C3)nn2)cc1NC(=O)c1cnc2ccccn12 [Example 11-12] | < 100 nM | < 100 nM | 
48 | Cc1ccc(-n2ncc3ccccc32)cc1NC(=O)c1cnc2ccccn12 [Example 11-13] | > 1000 nM |  | 100 to 1000 nM

From patent US20250034138A1, “Compounds and Compositions as C-Kit Kinase Inhibitors” (Enanta Pharmaceuticals, Inc., priority 2023, published 2025)
